In ChEMBL document CHEMBL1201862, “PubChem BioAssay data set” (2004):
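Protocol summary: plate cells (96-well), add compound at 5 concentrations, incubate 48 h, interpolate endpoints linearly. At the GI50, growth is halved.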 Activity calls are given as the source filed them. Rule as the data show it: active = GI50 up to about 1.1 µM and inactive = higher.

Experiments:
Test in all cases: growth of human tumour cells (NCI), 48 h
[1] = tested on: BT-549
[2] = tested on: CAKI-1
[3] = tested on: COLO 205
[4] = tested on: EKVX
[5] = tested on: HOP-62
[6] = tested on: KM12
[7] = tested on: MCF7
[8] = tested on: MDA-MB-231
[9] = tested on: MDA-MB-435
[10] = tested on: MDA-N
[11] = tested on: Malme-3M
[12] = tested on: NCI-H23
[13] = tested on: NCI-H460
[14] = tested on: OVCAR-3
[15] = tested on: OVCAR-4
[16] = tested on: SF-539
[17] = tested on: SK-MEL-28
[18] = tested on: SK-OV-3
[19] = tested on: TK-10
[20] = tested on: UACC-62

## Cc1cc(-c2nc3cc(F)ccc3s2)ccc1NC(=O)C(C)N (stereo not given)
[1]
  GI50: 4.24 µM (inactive)
[2]
  GI50: 3.28 µM (inactive)
[3]
  GI50: 9.23 µM (inactive)
[4]
  GI50: 3.1 µM (inactive)
[5]
  GI50: 3.97 µM (inactive)
[6]
  GI50: 3.94 µM (inactive)
[7]
  GI50: 0.0258 µM (active)
[8]
  GI50: 3.77 µM (inactive)
[9]
  GI50: 4.81 µM (inactive)
[10]
  GI50: 4.21 µM (inactive)
[11]
  GI50: 15.2 µM (inactive)
[12]
  GI50: 2.67 µM (inactive)
[13]
  GI50: 0.955 µM (active)
[14]
  GI50: 3.41 µM (inactive)
[15]
  GI50: 1.02 µM (active)
[16]
  GI50: 10.4 µM (inactive)
[17]
  GI50: 5.25 µM (inactive)
[18]
  GI50: 4.1 µM (inactive)
[19]
  GI50: 0.0501 µM (active)
[20]
  GI50: 4.02 µM (inactive)

## Clc1cc(Cl)cc(/N=C/C=C/Nc2cc(Cl)cc(Cl)c2)c1
[1]
  GI50: 43.3 µM (inactive)
[2]
  GI50: 15.2 µM (inactive)
[3]
  GI50: 16.5 µM (inactive)
[4]
  GI50: 5.12 µM (inactive)
[5]
  GI50: 23.7 µM (inactive)
[6]
  GI50: 16.2 µM (inactive)
[7]
  GI50: 13.4 µM (inactive)
[8]
  GI50: 14.2 µM (inactive)
[9]
  GI50: 18.6 µM (inactive)
[10]
  GI50: 19.4 µM (inactive)
[11]
  GI50: 30.5 µM (inactive)
[12]
  GI50: 14.2 µM (inactive)
[13]
  GI50: 19.1 µM (inactive)
[14]
  GI50: 13.7 µM (inactive)
[15]
  GI50: 14.6 µM (inactive)
[16]
  GI50: 21.6 µM (inactive)
[17]
  GI50: 25.3 µM (inactive)
[18]
  GI50: 35.5 µM (inactive)
[19]
  GI50: 29.9 µM (inactive)
[20]
  GI50: 19.7 µM (inactive)

## CCOC(=O)/C(C[C@H]1OC(C)(C)O[C@@H]1[C@H]1COC(C)(C)O1)=N/O
[1]
  GI50: > 100 µM (inactive)
[2]
  GI50: > 100 µM (inactive)
[3]
  GI50: > 100 µM (inactive)
[4]
  GI50: > 100 µM (inactive)
[5]
  GI50: > 100 µM (inactive)
[6]
  GI50: > 100 µM (inactive)
[7]
  GI50: > 100 µM (inactive)
[8]
  GI50: > 100 µM (inactive)
[9]
  GI50: > 100 µM (inactive)
[10]
  GI50: > 100 µM (inactive)
[11]
  GI50: > 100 µM (inactive)
[12]
  GI50: > 100 µM (inactive)
[13]
  GI50: > 100 µM (inactive)
[14]
  GI50: > 100 µM (inactive)
[15]
  GI50: > 100 µM (inactive)
[16]
  GI50: > 100 µM (inactive)
[17]
  GI50: > 100 µM (inactive)
[18]
  GI50: > 100 µM (inactive)
[19]
  GI50: > 100 µM (inactive)
[20]
  GI50: > 100 µM (inactive)

## O=S(=O)(c1ccccc1)C1CN(Cc2ccccc2)CCN(Cc2ccccc2)C1
[1]
  GI50: 80.5 µM (inactive)
[2]
  GI50: 24.4 µM (inactive)
[3]
  GI50: 30 µM (inactive)
[4]
  GI50: 36.7 µM (inactive)
[5]
  GI50: > 76.2 µM (inactive)
[6]
  GI50: 58.3 µM (inactive)
[7]
  GI50: 36.8 µM (inactive)
[8]
  GI50: 39.2 µM (inactive)
[9]
  GI50: 20.9 µM (inactive)
[10]
  GI50: 6.46 µM (inactive)
[11]
  GI50: 25.5 µM (inactive)
[12]
  GI50: 15.7 µM (inactive)
[13]
  GI50: 26.7 µM (inactive)
[14]
  GI50: 26.6 µM (inactive)
[15]
  GI50: 9.79 µM (inactive)
[16]
  GI50: 77.6 µM (inactive)
[17]
  GI50: > 71 µM (inactive)
[18]
  GI50: > 71.6 µM (inactive)
[19]
  GI50: 63.4 µM (inactive)
[20]
  GI50: 11.4 µM (inactive)

## O=C1/C(=C/c2ccccc2)CCCC1CN1CCCCC1 (stereo not given)
[1]
  GI50: 2.95 µM (inactive)
[2]
  GI50: 1.81 µM (inactive)
[3]
  GI50: 3 µM (inactive)
[4]
  GI50: 15.1 µM (inactive)
[5]
  GI50: 20.8 µM (inactive)
[6]
  GI50: 1.19 µM (inactive)
[7]
  GI50: 0.428 µM (active)
[8]
  GI50: 2 µM (inactive)
[9]
  GI50: 2 µM (inactive)
[10]
  GI50: 2.11 µM (inactive)
[11]
  GI50: 1.82 µM (inactive)
[12]
  GI50: 4.97 µM (inactive)
[13]
  GI50: 6.58 µM (inactive)
[14]
  GI50: 1.71 µM (inactive)
[15]
  GI50: 2.05 µM (inactive)
[16]
  GI50: 3.12 µM (inactive)
[17]
  GI50: 1.97 µM (inactive)
[18]
  GI50: 17.2 µM (inactive)
[19]
  GI50: 2.59 µM (inactive)
[20]
  GI50: 6.53 µM (inactive)

## CN(CCCNC(=O)c1nn(-c2ccc(Cl)cc2Cl)c2c1Cc1ccccc1-2)CCCNC(=O)c1nn(-c2ccc(Cl)cc2Cl)c2c1Cc1ccccc1-2
[1]
  GI50: 2.03 µM (inactive)
[2]
  GI50: 1.55 µM (inactive)
[3]
  GI50: 1.83 µM (inactive)
[4]
  GI50: 1.66 µM (inactive)
[5]
  GI50: 1.72 µM (inactive)
[6]
  GI50: 2.37 µM (inactive)
[7]
  GI50: 1.55 µM (inactive)
[8]
  GI50: 1.87 µM (inactive)
[9]
  GI50: 1.48 µM (inactive)
[10]
  GI50: 1.7 µM (inactive)
[11]
  GI50: 1.78 µM (inactive)
[12]
  GI50: 2 µM (inactive)
[13]
  GI50: 1.65 µM (inactive)
[14]
  GI50: 1.73 µM (inactive)
[15]
  GI50: 0.285 µM (active)
[16]
  GI50: 1.19 µM (inactive)
[17]
  GI50: 1.69 µM (inactive)
[18]
  GI50: 1.78 µM (inactive)
[19]
  GI50: 1.73 µM (inactive)
[20]
  GI50: 1.57 µM (inactive)

## O=C(COC(c1ccc(F)cc1)c1ccc(F)cc1)N1CCN(CCCc2ccccc2)CC1
[1]
  GI50: 3.02 µM (inactive)
[2]
  GI50: 2.05 µM (inactive)
[3]
  GI50: 1.79 µM (inactive)
[4]
  GI50: 4.44 µM (inactive)
[5]
  GI50: 6.52 µM (inactive)
[6]
  GI50: 4.06 µM (inactive)
[7]
  GI50: 3.32 µM (inactive)
[8]
  GI50: 3.22 µM (inactive)
[9]
  GI50: 3.67 µM (inactive)
[10]
  GI50: 3.74 µM (inactive)
[11]
  GI50: 4.68 µM (inactive)
[12]
  GI50: 1.76 µM (inactive)
[13]
  GI50: 3.57 µM (inactive)
[14]
  GI50: 4.29 µM (inactive)
[15]
  GI50: 3.24 µM (inactive)
[16]
  GI50: 5.2 µM (inactive)
[17]
  GI50: 15.6 µM (inactive)
[18]
  GI50: 6.97 µM (inactive)
[19]
  GI50: 5.35 µM (inactive)
[20]
  GI50: 4.26 µM (inactive)
